Here are results for seven compounds from patent US4656166A, “Antibiotic compounds derived from cephalosporins, process for their production and pharmaceutical compositions” (Sanofi, priority 1983, dated 1987).

What all share (format): cell-based
For test [1], the system named is Serrtia liquefaciens SL/326 A. The test can be described thus: MIC on beta-lactamase producing strain Serratia liquefaciens SL/326 A (Table IV). On the procedure:
(§1) To evaluate the stability of these products towards beta-lactamases, their MIC was determined on isogenic strains producing and not producing beta-lactamases.
(§2) The results are expressed in μg/ml in Table IV.

The subject of the next test is Klebsiella RO 30. Briefly: MIC, in vitro dilution method, Klebsiella RO 30 (Table III). To be noted: RO30. The method, boiled down:
(§3)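 Compounds are serially diluted in vitro and tested for bacteriostatic effect on each Gram-negative strain; the lowest inhibiting concentration is recorded as MIC (μg/ml).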

In the next test the test system is Citrobacter RL 49. Briefly: MIC, in vitro dilution method, Citrobacter RL 49 (Table III). To be noted: RL49. The gist of the method:
as §3

Test [2] relates to Proteus vulgaris RL 99 bis. Briefly: MIC, in vitro dilution method, Proteus vulgaris RL 99 bis (Table III). To be noted: RL99BIS. The gist of the method: as §3
For a further test, the system named is Enterobacter RO 154. The test can be described thus: MIC, in vitro dilution method, Enterobacter RO 154 (Table III). The following applies: RO154; Enterobacter RO 154; dilution method; read-out: MIC. The gist of the method:
as §3

The test system of another test is Escherichia coli 255. Briefly: MIC on beta-lactamase producing strain Escherichia coli 255 (Table IV). As to the method:
as §1, §2

For test [3], the system named is Serrtia liquefaciens SL 1326 S. Briefly: MIC on strain not producing beta-lactamase, Serratia liquefaciens SL 1326 S (Table IV). To be noted: SL1326S, not producing beta-lactamases. As to the method:
as §1, §2

For test [4], the system named is Proteus vulgaris GN 76/C.1/3. The test can be described thus: MIC on strain not producing beta-lactamase, Proteus vulgaris GN 76/C.1/3 (Table IV). The following applies: GN76, not producing beta-lactamases. As to the method: as §1, §2
Another test has as its system Escherichia coli SOL 90. Briefly: MIC, in vitro dilution method, Escherichia coli SOL 90 (Table III). To be noted: SOL90; Escherichia coli SOL 90; dilution method; read-out: MIC. The method, boiled down: as §3
For another test, the system named is Escherichia coli 255/L.7. The test can be described thus: MIC on strain not producing beta-lactamase, Escherichia coli 255/L.7 (Table IV). To be noted: Escherichia coli 255/L.7 *, not producing beta-lactamases; read-out: MIC. As to the method:
as §1, §2

Another test concerns Pseudomonas RL 112. Briefly: MIC, in vitro dilution method, Pseudomonas RL 112 (Table III). To be noted: RL112. The gist of the method:
as §3

Another test concerns Serratia RL 72. Briefly: MIC, in vitro dilution method, Serratia RL 72 (Table III). The following applies: RL72. The method, boiled down:
as §3

Test [5] concerns Proteus vulgaris GN 76/C.1. Briefly: MIC on beta-lactamase producing strain Proteus vulgaris GN 76/C.1 (Table IV). To be noted: GN76. As to the method: as §1, §2
Where [6] appears, read: Klebsiella RO 30, dilution method, read-out: MIC.
Where [7] appears, read: Citrobacter RL 49, dilution method, read-out: MIC.
Where [8] appears, read: Escherichia coli 255, producing beta-lactamases, read-out: MIC.
Where [9] appears, read: Proteus vulgaris RL 99 bis, dilution method, read-out: MIC.
Where [10] appears, read: Proteus vulgaris GN 76/C.1, producing beta-lactamases, read-out: MIC.

Structures are written as SMILES. Values after ≈ are worked out from the molar mass of the structure shown. Like-named read-outs stand apart in the source and are kept apart here. Bounds are passed on as bounds.

Take `CC(C)(ON=C(C(=O)NC1C(=O)N2C(C(=O)O)=C(COC(=O)c3ccc(NC(=O)CCN)cc3)C[S+]([O-])C12)c1csc(N)n1)C(=O)O` (centres unmarked) [42 546]: the minimal inhibitory concentration (MIC) in test [1] was 0.25 µg/mL (≈ 0.361 µM); in the test with Klebsiella RO 30 (setting [6]), 0.25 µg/mL (≈ 0.361 µM); in the test with Citrobacter RL 49 (setting [7]) it was 0.25 µg/mL (≈ 0.361 µM); in [2] (Proteus vulgaris), no more than 0.125 µg/mL; in the test with Enterobacter RO 154 it was 0.25 µg/mL (≈ 0.361 µM); in the test on Escherichia coli 255 (setting [8]) it was 0.0625 µg/mL (≈ 0.0904 µM). Moreover, the MIC in test [3] was no more than 0.0312 µg/mL; in test [4], 0.125 µg/mL (≈ 0.181 µM); with Escherichia coli SOL 90 it was 0.25 µg/mL (≈ 0.361 µM); in the test on Escherichia coli 255/L.7 it was no more than 0.0312 µg/mL; against Pseudomonas RL 112, 4 µg/mL (≈ 5.78 µM); against Serratia RL 72 it was 1 µg/mL (≈ 1.45 µM). The minimum inhibitory concentration (MIC) in test [5] (Proteus vulgaris) was no more than 0.0312 µg/mL.
With `CC(C)(O/N=C(\C(=O)NC1C(=O)N2C(C(=O)O)=C(COC(=O)CCCCN)C[S+]([O-])C12)c1csc(N)n1)C(=O)O` (centres unmarked) [41 967], the MIC in test [1] is 0.25 µg/mL (≈ 0.416 µM); in the test on Klebsiella RO 30 (setting [6]), 0.25 µg/mL (≈ 0.416 µM); in the test on Citrobacter RL 49 (setting [7]) it was 0.5 µg/mL (≈ 0.832 µM); in test [2] (setting [9]) it was no more than 0.12 µg/mL; in the test on Enterobacter RO 154 it was 2 µg/mL (≈ 3.33 µM); in the test with Escherichia coli 255 (setting [8]) it was no more than 0.12 µg/mL. Further, the MIC in [3] was no more than 0.12 µg/mL; in test [4] it was no more than 0.12 µg/mL; in the test on Escherichia coli SOL 90, 0.25 µg/mL (≈ 0.416 µM); in the test on Escherichia coli 255/L.7, no more than 0.12 µg/mL; in the test with Pseudomonas RL 112, 4 µg/mL (≈ 6.66 µM); in the test with Serratia RL 72, 0.5 µg/mL (≈ 0.832 µM). For the same compound, in test [5] (setting [10]), the minimum inhibitory concentration (MIC) was no more than 0.12 µg/mL.
Take `CNCc1ccc(C(=O)SCC2=C(C(=O)O)N3C(=O)C(NC(=O)C(=NOC(C)(C)C(=O)O)c4csc(N)n4)C3[S+]([O-])C2)cc1` (centres unmarked) [compound 42533]: the MIC was 0.125 µg/mL (≈ 0.188 µM) in test [1]; 0.25 µg/mL (≈ 0.376 µM) in the test with Klebsiella RO 30 (setting [6]); 0.25 µg/mL (≈ 0.376 µM) in the test on Citrobacter RL 49 (setting [7]); no more than 0.125 µg/mL in [2] (Proteus vulgaris); 0.5 µg/mL (≈ 0.752 µM) in the test on Enterobacter RO 154; 0.125 µg/mL (≈ 0.188 µM) in the test with Escherichia coli 255 (setting [8]). The minimal inhibitory concentration (MIC) was no more than 0.0312 µg/mL in test [3]; 0.125 µg/mL (≈ 0.188 µM) in test [4]; 0.5 µg/mL (≈ 0.752 µM) in the test with Escherichia coli SOL 90; 0.0625 µg/mL (≈ 0.094 µM) in the test with Escherichia coli 255/L.7; 8 µg/mL (≈ 12 µM) with Pseudomonas RL 112; 1 µg/mL (≈ 1.5 µM) in the test with Serratia RL 72. Further, 0.0625 µg/mL (≈ 0.094 µM) was the least that counted as inhibitory in test [5] (Proteus vulgaris) (MIC).
For the compound `NCC(=O)Nc1ccc(C(=O)OCC2=C(C(=O)O)N3C(=O)C(NC(=O)C(=NOC4(C(=O)O)CCC4)c4csc(N)n4)C3[S+]([O-])C2)cc1` (centres unmarked) [42 548], the minimal inhibitory concentration (MIC) in test [1] was 0.125 µg/mL (≈ 0.181 µM); with Klebsiella RO 30 (Klebsiella), 0.125 µg/mL (≈ 0.181 µM); in the test on Citrobacter RL 49 (Citrobacter) it was no more than 0.125 µg/mL; in [2] (Proteus vulgaris), no more than 0.125 µg/mL; with Enterobacter RO 154, 0.25 µg/mL (≈ 0.362 µM); in the test with Escherichia coli 255 (Escherichia coli, 255), 0.625 µg/mL (≈ 0.906 µM). The MIC is no more than 0.0312 µg/mL in test [3]; 0.0625 µg/mL (≈ 0.0906 µM) in [4]; 0.25 µg/mL (≈ 0.362 µM) in the test with Escherichia coli SOL 90; no more than 0.0312 µg/mL in the test on Escherichia coli 255/L.7; 2 µg/mL (≈ 2.9 µM) with Pseudomonas RL 112; 0.5 µg/mL (≈ 0.725 µM) against Serratia RL 72. In [5] (Proteus vulgaris), the MIC was found to be 0.0625 µg/mL (≈ 0.0906 µM).
Turning to `CC(C)(ON=C(C(=O)NC1C(=O)N2C(C(=O)O)=C(COC(=O)C3CCCNC3)C[S+]([O-])C12)c1csc(N)n1)C(=O)O` (centres unmarked) [42 022], the MIC in test [1] is no more than 0.12 µg/mL; in the test on Klebsiella RO 30 (setting [6]) it was 0.25 µg/mL (≈ 0.408 µM); with Citrobacter RL 49 (setting [7]) it was 0.25 µg/mL (≈ 0.408 µM); in test [2] (setting [9]), no more than 0.12 µg/mL; in the test on Enterobacter RO 154, 2 µg/mL (≈ 3.26 µM); in the test on Escherichia coli 255 (setting [8]), 0.25 µg/mL (≈ 0.408 µM). The MIC in [3] is no more than 0.12 µg/mL; in [4] it was no more than 0.12 µg/mL; in the test on Escherichia coli SOL 90, 0.5 µg/mL (≈ 0.816 µM); in the test with Escherichia coli 255/L.7, 0.25 µg/mL (≈ 0.408 µM); in the test on Pseudomonas RL 112 it was 4 µg/mL (≈ 6.53 µM); in the test with Serratia RL 72, 0.5 µg/mL (≈ 0.816 µM). For the same compound, in test [5] (setting [10]), the MIC was no more than 0.12 µg/mL.
Take `CC(C)(ON=C(C(=O)NC1C(=O)N2C(C(=O)O)=C(CSC(=O)c3ccc(NC(=O)CN)cc3)C[S+]([O-])C12)c1csc(N)n1)C(=O)O` (centres unmarked) [compound 42664]: the MIC was 0.25 µg/mL (≈ 0.36 µM) in [1]; 0.5 µg/mL (≈ 0.721 µM) in the test with Klebsiella RO 30 (setting [6]); 4 µg/mL (≈ 5.77 µM) with Enterobacter RO 154; 0.25 µg/mL (≈ 0.36 µM) with Escherichia coli 255 (setting [8]); 0.0625 µg/mL (≈ 0.0901 µM) in test [3]; 0.25 µg/mL (≈ 0.36 µM) in test [4]. Besides, the minimal inhibitory concentration (MIC) with Escherichia coli SOL 90 is 1 µg/mL (≈ 1.44 µM); with Escherichia coli 255/L.7, 0.0625 µg/mL (≈ 0.0901 µM); with Pseudomonas RL 112, 8 µg/mL (≈ 11.5 µM); against Serratia RL 72, 4 µg/mL (≈ 5.77 µM); in test [5] (setting [10]), 0.125 µg/mL (≈ 0.18 µM).
With `CC(C)(O/N=C(\C(=O)NC1C(=O)N2C(C(=O)O)=C(COC(=O)c3csc(NC(=O)CN)n3)C[S+]([O-])C12)c1csc(N)n1)C(=O)O` (centres unmarked) [42 466], the MIC in test [1] is 1 µg/mL (≈ 1.46 µM); in the test with Klebsiella RO 30 (setting [6]) it was 0.5 µg/mL (≈ 0.73 µM); in the test with Citrobacter RL 49 (setting [7]), 0.25 µg/mL (≈ 0.365 µM); in test [2] (Proteus vulgaris), no more than 0.125 µg/mL; with Enterobacter RO 154 it was 0.5 µg/mL (≈ 0.73 µM); in the test with Escherichia coli 255 (setting [8]) it was 0.125 µg/mL (≈ 0.183 µM). The MIC in test [3] was no more than 0.0312 µg/mL; in [4], 0.0625 µg/mL (≈ 0.0913 µM); with Escherichia coli SOL 90 it was 0.5 µg/mL (≈ 0.73 µM); in the test with Escherichia coli 255/L.7 it was 0.125 µg/mL (≈ 0.183 µM); with Pseudomonas RL 112, 4 µg/mL (≈ 5.84 µM); against Serratia RL 72 it was 2 µg/mL (≈ 2.92 µM). In test [5] (Proteus vulgaris), this compound had an MIC of no more than 0.0312 µg/mL.
